This is an account of results in ChEMBL document CHEMBL1201862, “PubChem BioAssay data set” (2004).

Structures are written as SMILES.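 Growth conditions: 96-well plates. Treatment: test compound, 48 hours, 5 concentrations. Analysis: linear interpolation between bracketing concentrations; unreached endpoints set to highest concentration. GI50: concentration for 50% inhibition of growth.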 Activity calls are given as the source filed them. No stated cut-off is given here; in the data, active = GI50 up to about 1.1 µM and inactive = higher.

Among the test systems are Hs-578T; SK-OV-3; M14; HT-29; NCI-H522; SK-MEL-28; MDA-MB-435; SF-539; Malme-3M; SW-620; SK-MEL-2; NCI-H460; OVCAR-3; DU-145; MDA-N; SN12C; TK-10; HOP-92; OVCAR-4; RXF 393.
Assay in all cases: NCI-60 cell line screen, 48 h

Turning to `CCCCCCCCC/C=C1/CC(CO)(COC(=O)c2ccccc2)OC1=O` (centres undefined), the GI50 was 3.69 µM (inactive) in the experiment on Hs-578T; 18.6 µM (inactive) in the experiment on SK-OV-3; 14 µM (inactive) in the experiment with M14; 17.7 µM (inactive) in the experiment with HT-29; 13.7 µM (inactive) in the experiment with NCI-H522; 13.7 µM (inactive) in the experiment on SK-MEL-28. For the same molecule, the GI50 in the experiment with MDA-MB-435 is 11.1 µM (inactive); in the experiment on SF-539 it was 20.4 µM (inactive); in the experiment with Malme-3M it was 6.92 µM (inactive); in the experiment with SW-620 it was 14.4 µM (inactive); with SK-MEL-2 it was 16.3 µM (inactive); with NCI-H460, 10 µM (inactive). Also, the GI50 is 16.7 µM (inactive) with OVCAR-3; 12.9 µM (inactive) in the experiment on DU-145; 6.01 µM (inactive) in the experiment with MDA-N; 12.5 µM (inactive) with SN12C; 10.8 µM (inactive) with TK-10; 1.61 µM (inactive) in the experiment with HOP-92. In addition, the figures for the GI50 in the experiment with OVCAR-4 and with RXF 393 were 12.7 µM (inactive) and 15.6 µM (inactive), respectively.

With `O=C(/C=C/c1ccccc1)Nc1ccccc1SCCCCl`, the GI50 with Hs-578T is 6.81 µM (inactive); in the experiment with SK-OV-3, 8.41 µM (inactive); with M14, 20.1 µM (inactive); with HT-29 it was 7.94 µM (inactive); with NCI-H522, 4.07 µM (inactive); in the experiment on SK-MEL-28 it was > 47.4 µM (inactive). Besides, the GI50 with MDA-MB-435 is 4.95 µM (inactive); with SF-539, 8.57 µM (inactive); in the experiment on Malme-3M, 10.7 µM (inactive); in the experiment on SW-620, 6.46 µM (inactive); with SK-MEL-2 it was 22.2 µM (inactive); in the experiment on NCI-H460, 10.2 µM (inactive). Moreover, the GI50 in the experiment with OVCAR-3 was 13.1 µM (inactive); in the experiment on DU-145, 10.2 µM (inactive); in the experiment on MDA-N, 6.38 µM (inactive); in the experiment with SN12C it was 8.93 µM (inactive); with TK-10, 55.7 µM (inactive); in the experiment on HOP-92, 3.67 µM (inactive). Also, the GI50 with OVCAR-4 was 12.1 µM (inactive); with RXF 393 it was 8.43 µM (inactive).

For `FC(F)(F)c1ccc2c(c1)nc(Cc1ccccc1)n2C[C@@H]1CCCN2CCCCC12` (some centres undefined), the GI50 was 18.5 µM (inactive) in the experiment with Hs-578T; 17.5 µM (inactive) in the experiment on SK-OV-3; 10.6 µM (inactive) with M14; 12 µM (inactive) in the experiment on HT-29; 14 µM (inactive) in the experiment with NCI-H522; 16.2 µM (inactive) in the experiment with SK-MEL-28. Also, the GI50 with MDA-MB-435 was 14.9 µM (inactive); in the experiment on SF-539 it was 18.8 µM (inactive); in the experiment on Malme-3M, 15.2 µM (inactive); with SW-620, 21.7 µM (inactive); in the experiment on SK-MEL-2, 16.3 µM (inactive); with NCI-H460, 15.2 µM (inactive). The GI50 with OVCAR-3 was 14.8 µM (inactive); in the experiment on DU-145, 15.5 µM (inactive); in the experiment with MDA-N it was 12.7 µM (inactive); in the experiment with SN12C it was 13.1 µM (inactive); in the experiment on TK-10, 17.1 µM (inactive); in the experiment on HOP-92, 8.85 µM (inactive). Also, the results for the GI50 in the experiment on OVCAR-4 and in the experiment with RXF 393 were 15.2 µM (inactive) and 8.55 µM (inactive), respectively.

Consider `C/C(=N/NC(=S)Nc1ccccc1Cl)c1cccc(/C(C)=N\NC(=S)Nc2ccccc2Cl)n1`, for which the GI50 in the experiment on Hs-578T was > 100 µM (inactive); with SK-OV-3 it was > 100 µM (inactive); in the experiment on M14, 22 µM (inactive); in the experiment with HT-29 it was > 100 µM (inactive); in the experiment on NCI-H522 it was 46.7 µM (inactive); in the experiment on SK-MEL-28, > 100 µM (inactive). For the same molecule, the GI50 is > 100 µM (inactive) with MDA-MB-435; 16.6 µM (inactive) in the experiment with SF-539; 35.8 µM (inactive) with Malme-3M; 11.1 µM (inactive) with SW-620; > 100 µM (inactive) in the experiment with SK-MEL-2; 5.47 µM (inactive) in the experiment on NCI-H460. Besides, the GI50 was 16.3 µM (inactive) in the experiment with OVCAR-3; > 100 µM (inactive) in the experiment on DU-145; > 100 µM (inactive) with MDA-N; > 100 µM (inactive) in the experiment with SN12C; 49.1 µM (inactive) in the experiment on TK-10; > 100 µM (inactive) with HOP-92. For the same molecule, the GI50 with OVCAR-4 is 28.4 µM (inactive); with RXF 393, > 100 µM (inactive).

In the case of `CC(=O)c1ccc(Br)cc1NC1=CC(=O)c2ncccc2C1=O`, the GI50 is 17.1 µM (inactive) in the experiment with Hs-578T; 15.7 µM (inactive) in the experiment with SK-OV-3; 2.22 µM (inactive) in the experiment on M14; 3.24 µM (inactive) in the experiment with HT-29; 3.27 µM (inactive) with NCI-H522; 6.79 µM (inactive) in the experiment with SK-MEL-28. Besides, the GI50 with MDA-MB-435 was 1.69 µM (inactive); in the experiment with SF-539 it was 2.56 µM (inactive); with Malme-3M it was 1.64 µM (inactive); with SK-MEL-2, 4.09 µM (inactive); with NCI-H460, 1.12 µM (active); with OVCAR-3, 1.61 µM (inactive). Also, the GI50 in the experiment with DU-145 was 4.36 µM (inactive); in the experiment with MDA-N it was 1.81 µM (inactive); in the experiment with SN12C it was 7 µM (inactive); in the experiment with TK-10 it was 17.6 µM (inactive); in the experiment on HOP-92 it was 12.2 µM (inactive); with OVCAR-4, 1.83 µM (inactive). For the same molecule, the GI50 in the experiment with RXF 393 is 5.13 µM (inactive).

`O=C1N[C@@H]2c3c(Br)sc(Br)c3C(=O)[C@@H]2O1`: the GI50 with Hs-578T was 19.7 µM (inactive); in the experiment on SK-OV-3 it was 18.7 µM (inactive); with M14 it was 1.97 µM (inactive); with HT-29, 1.9 µM (inactive); in the experiment with NCI-H522 it was 0.703 µM (active); in the experiment on SK-MEL-28 it was 2.62 µM (inactive). The GI50 in the experiment on MDA-MB-435 is 2.47 µM (inactive); in the experiment with SF-539 it was 10.3 µM (inactive); in the experiment with Malme-3M it was 2.59 µM (inactive); with SW-620, 1.96 µM (inactive); in the experiment on SK-MEL-2, 16.8 µM (inactive); with NCI-H460, 8.67 µM (inactive). Further, the GI50 in the experiment on OVCAR-3 was 1.8 µM (inactive); in the experiment with DU-145 it was 15 µM (inactive); with MDA-N it was 2.44 µM (inactive); with SN12C, 2.93 µM (inactive); in the experiment on TK-10 it was 6 µM (inactive); with HOP-92, 5.14 µM (inactive). Moreover, the GI50 in the experiment with OVCAR-4 was 1.79 µM (inactive); in the experiment on RXF 393, 2.2 µM (inactive).

As to `O=C(Nc1ccn(C2CC(I)C(COC(c3ccccc3)(c3ccccc3)c3ccccc3)O2)c(=O)n1)c1ccccc1` (centres undefined), the GI50 in the experiment with Hs-578T was 3.03 µM (inactive); in the experiment with SK-OV-3, 15.5 µM (inactive); in the experiment with M14 it was 10.8 µM (inactive); with HT-29, 6.5 µM (inactive); in the experiment on NCI-H522, 11 µM (inactive); in the experiment on SK-MEL-28, 11.4 µM (inactive). The GI50 in the experiment with MDA-MB-435 was 7.36 µM (inactive); with SF-539 it was 12.4 µM (inactive); in the experiment with Malme-3M it was 7.78 µM (inactive); in the experiment with SW-620 it was 14 µM (inactive); in the experiment with SK-MEL-2, > 10 µM (inactive); with NCI-H460, 7.11 µM (inactive). For the same molecule, the GI50 was 4.25 µM (inactive) in the experiment on OVCAR-3; 11.9 µM (inactive) in the experiment with DU-145; 7.91 µM (inactive) in the experiment with MDA-N; 4.36 µM (inactive) with SN12C; 15.9 µM (inactive) in the experiment with TK-10; 5.14 µM (inactive) in the experiment on HOP-92. The GI50 is 3.75 µM (inactive) with OVCAR-4 and 8.59 µM (inactive) in the experiment on RXF 393.

For `Cc1c(Cc2ccccc2)c(Cc2ccccc2)c(C)[s+]1[O-]`, the GI50 is 37.8 µM (inactive) with Hs-578T; 40.3 µM (inactive) with SK-OV-3; 21.2 µM (inactive) in the experiment on M14; 16.7 µM (inactive) with HT-29; 23.7 µM (inactive) in the experiment with NCI-H522; 30.3 µM (inactive) in the experiment with SK-MEL-28. The GI50 is 17.7 µM (inactive) in the experiment on MDA-MB-435; 45.2 µM (inactive) in the experiment with SF-539; 33.2 µM (inactive) in the experiment with Malme-3M; 26.4 µM (inactive) with SW-620; 16.9 µM (inactive) with SK-MEL-2; 27.5 µM (inactive) in the experiment on NCI-H460. The GI50 in the experiment with OVCAR-3 was 30.8 µM (inactive); with DU-145 it was 38.3 µM (inactive); in the experiment on MDA-N, 24.6 µM (inactive); in the experiment on SN12C, 26.5 µM (inactive); in the experiment on TK-10, 26.1 µM (inactive); with HOP-92, 27.4 µM (inactive). Besides, the GI50 in the experiment on OVCAR-4 is 23.7 µM (inactive); in the experiment on RXF 393, 20.6 µM (inactive).

As to `C/C=C(\C)C(=O)OC1/C=C(\C)CC/C=C(\C)CC2OC(=O)C(C)(OC(C)=O)C12` (centres undefined), the GI50 in the experiment with Hs-578T, in the experiment on SK-OV-3, with M14, in the experiment with HT-29, in the experiment on NCI-H522 and in the experiment on SK-MEL-28 was > 100 µM (inactive) each time. The GI50 in the experiment on MDA-MB-435, in the experiment on SF-539, with Malme-3M, in the experiment on SW-620, with SK-MEL-2 and in the experiment on NCI-H460 was > 100 µM (inactive) throughout. The GI50 in the experiment on OVCAR-3, in the experiment with DU-145, in the experiment with MDA-N, with SN12C, in the experiment with TK-10 and with HOP-92 was > 100 µM (inactive) in each case. The GI50 in the experiment with OVCAR-4 and in the experiment on RXF 393 was > 100 µM (inactive) in each case.

As to `CCOC(=O)Oc1cc2c(c(OC)c1OC)-c1ccc(OC)c(=O)cc1C(NC(C)=O)CC2` (centres undefined), the GI50 in the experiment on Hs-578T was 0.0619 µM (active); in the experiment with SK-OV-3, 0.114 µM (active); with M14 it was 0.0218 µM (active); in the experiment with HT-29 it was 0.0187 µM (active); in the experiment on NCI-H522, 0.014 µM (active); with SK-MEL-28, < 0.215 µM (active). Also, the GI50 in the experiment on MDA-MB-435 is < 0.01 µM (active); in the experiment on SF-539, 0.0138 µM (active); in the experiment with Malme-3M it was < 0.015 µM (active); in the experiment with SW-620 it was < 0.0122 µM (active); with SK-MEL-2, 0.0123 µM (active); in the experiment with NCI-H460, 0.0468 µM (active). The GI50 with OVCAR-3 is 0.0166 µM (active); in the experiment on DU-145, 0.1 µM (active); in the experiment on MDA-N it was < 0.01 µM (active); with SN12C it was 0.034 µM (active); in the experiment with TK-10, 3.78 µM (inactive); in the experiment on HOP-92, 0.0968 µM (active). Moreover, the GI50 in the experiment on OVCAR-4 was 11.2 µM (inactive); in the experiment with RXF 393 it was < 0.0137 µM (active).
